What is called Ki is the equilibrium dissociation constant of an inhibitor or competing ligand from its target.

Values joined by “and” are separate entries in the source; they are usually repeats but may differ in a detail not shown here. Equal entries are not always repeated.

Results on 52 compounds are retold here after US20050209278A1, “Piperidinyl- and piperazinyl-sulfonylmethyl hydroxamic acids and their use as protease inhibitors” (priority 2002, published 2005).

In one experiment the target is T1, MMP-9 (Homo sapiens, UniProt P14780).
T1 construct: made in house; host or cells: MMP-9-transfected HT1080 cells (spent media)
T1 sequence (P14780 107-707 limits assumed): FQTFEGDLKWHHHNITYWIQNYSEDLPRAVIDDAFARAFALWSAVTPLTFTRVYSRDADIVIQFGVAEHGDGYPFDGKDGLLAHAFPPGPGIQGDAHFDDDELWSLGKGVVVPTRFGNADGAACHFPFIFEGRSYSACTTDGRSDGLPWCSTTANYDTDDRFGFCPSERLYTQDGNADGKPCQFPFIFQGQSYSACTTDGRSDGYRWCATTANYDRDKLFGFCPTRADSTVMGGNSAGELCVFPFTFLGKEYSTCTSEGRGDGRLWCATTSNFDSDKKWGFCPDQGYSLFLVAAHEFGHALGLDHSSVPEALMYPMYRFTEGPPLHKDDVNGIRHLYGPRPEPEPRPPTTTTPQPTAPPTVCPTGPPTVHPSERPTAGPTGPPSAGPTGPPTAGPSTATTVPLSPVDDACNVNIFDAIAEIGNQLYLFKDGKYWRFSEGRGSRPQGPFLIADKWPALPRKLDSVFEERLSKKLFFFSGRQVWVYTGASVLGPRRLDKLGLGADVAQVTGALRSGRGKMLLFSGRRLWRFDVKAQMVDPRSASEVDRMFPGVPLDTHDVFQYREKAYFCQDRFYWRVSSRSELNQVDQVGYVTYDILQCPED
In words: In vitro MMP inhibition, Ki determination (fluorogenic substrate II). The format is biochemical. The note with it: value outside parentheses. The gist of the method:
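HT1080-derived MMP-9, activated with APMA, trypsin or MMP-3, incubated 1 hr at room temperature with inhibitor and 4 μM fluorogenic substrate II (at or below Km) in pH 7.5 Tris/NaCl/CaCl2 buffer; ex 330/em 420 nm. Ki from Morrison-equation regression, without substrate correction.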

Another experiment addresses T2, MMP-14 (Homo sapiens, UniProt P50281).
T2 construct: The catalytic domain enzyme was expressed in E. coli inclusion bodies, solubilized in urea; made in house
The experiment is described as above. The note with it: value outside parentheses; read-out: MMP-14 Ki. The format is biochemical. The gist of the method: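 E. coli-expressed, refolded MMP-14 catalytic domain, activated with APMA or trypsin, in 100 mM Tris-HCl pH 7.5, 100 mM NaCl, 10 mM CaCl2, 0.05% Brij-type detergent. Apparent Ki by Morrison-equation regression of velocity vs inhibitor and enzyme concentration.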

As to `CCc1ccc(C2CCN(S(=O)(=O)C3(C(=O)NO)CCN(CCOC)CC3)CC2)s1` [Example 314], the Ki on MMP-9 worked out at 22 nM; on MMP-14, 1310 nM. Take `O=C(NO)C1(S(=O)(=O)N2CCC(N3CCN(c4ccc(Cl)cc4)CC3)CC2)CCOCC1` [Example 315]: the Ki was 4960 nM at MMP-9 and greater than 10000 nM at MMP-14. Take `O=C(NO)C1(S(=O)(=O)N2CCN(c3ccc(-c4ccc(F)cc4F)cn3)CC2)CCOCC1` [Example 316]: the values for the Ki at MMP-9 and at MMP-14 were 2.39 nM and 910 nM, respectively. Take `O=C(NO)C1(S(=O)(=O)N2CCN(c3ccc(-c4ccccc4F)cn3)CC2)CCOCC1` [Example 317]: the inhibition constant Ki on MMP-9 came out at 2.18 nM; at MMP-14, 653 nM. Turning to `COc1ccccc1-c1ccc(N2CCN(S(=O)(=O)C3(C(=O)NO)CCOCC3)CC2)nc1` [Example 318], the Ki was found to be 1380 nM at MMP-9 and 1490 nM on MMP-14. Taken in the same sequence, the figures for `O=C(NO)C1(S(=O)(=O)N2CCN(c3ccc(-c4cccc(OC(F)(F)F)c4)cn3)CC2)CCOCC1` [Example 319] were 923 nM and greater than 10000 nM.

With `O=C(NO)C1(S(=O)(=O)N2CCN(c3ccc(CCCC(F)(F)F)cc3)CC2)CCOCC1` [Example 320], the figures for the inhibition constant Ki at MMP-9 and at MMP-14 were 1.33 nM and 3930 nM, respectively. As for `O=C(NO)C1(S(=O)(=O)N2CCN(c3cnn(CCCC(F)(F)F)c(=O)c3)CC2)CCOCC1` [Example 321], the Ki at MMP-9 and at MMP-14 was greater than 10000 nM throughout. In the case of `O=C(NO)C1(S(=O)(=O)N2CCN(c3cnn(-c4ccccc4)c(=O)c3)CC2)CCOCC1` [Example 322], the inhibition constant (Ki) on MMP-9 and at MMP-14 was greater than 10000 nM in each case. In the case of `CCCCc1ccc(C2CCN(S(=O)(=O)C3(C(=O)NO)CCOCC3)CC2)nc1` [Example 323], the Ki at MMP-14 was 1290 nM. With `COC(=O)c1ccc(N2CCN(S(=O)(=O)C3(C(=O)NO)CCOCC3)CC2)cc1` [Example 324], the results for the inhibition constant Ki on MMP-9 and on MMP-14 were 2.39 nM and 1150 nM, respectively. For the compound `CCCCOc1ccc(N2CCN(S(=O)(=O)C3(C(=O)NO)CCN(CCOC)CC3)CC2)nc1` [Example 325], the inhibitory constant (Ki) on MMP-9 came to 0.32 nM; at MMP-14 it was 912 nM.

With `O=C(NO)C1(S(=O)(=O)N2CCN(c3ccc(OCC(F)(F)C(F)F)cc3)CC2)CCOCC1` [Example 326], the inhibition constant Ki on MMP-9 worked out at 2.03 nM; at MMP-14 it was 2430 nM. Turning to `O=C(NO)C1(S(=O)(=O)N2CCN(c3ccc(-c4ccc(OC(F)(F)F)cc4)cc3)CC2)CCOCC1` [Example 327], the inhibition constant (Ki) on MMP-9 was determined as 35.6 nM; at MMP-14 it was 1370 nM. For the compound `O=C(NO)C1(S(=O)(=O)N2CCN(c3ccc(-c4ccc(Cl)c(Cl)c4)cc3)CC2)CCOCC1` [Example 328], the Ki on MMP-9 is 95.7 nM; at MMP-14, 2690 nM.

Consider `O=C(NO)C1(S(=O)(=O)N2CCN(c3cnn(-c4ccccc4)c(=O)c3Cl)CC2)CCOCC1` [Example 329], for which the Ki on MMP-9 and on MMP-14 was greater than 10000 nM in each case. Consider `O=C(NO)C1(S(=O)(=O)N2CCC(c3ccc(OCC(F)(F)C(F)(F)F)cc3)CC2)CCOCC1` [Example 330], for which the Ki on MMP-9 is 3.03 nM; on MMP-14, greater than 10000 nM. Taken in the same sequence, the figures for `O=C(NO)C1(S(=O)(=O)N2CCN(c3ccc(Br)cn3)CC2)CCOCC1` [Example 331] were 1.7 nM and 13.5 nM.

`COCCN1CCC(C(=O)NO)(S(=O)(=O)N2CCN(c3ncccn3)CC2)CC1` [Example 332]: the inhibition constant (Ki) is 260 nM at MMP-9 and greater than 10000 nM at MMP-14. Taken in the same sequence, the figures for `O=C(NO)C1(S(=O)(=O)N2CCN(c3ccc(OCC4CC4)c(F)c3)CC2)CCOCC1` [Example 333] were 1.05 nM and 2360 nM. On to `CCCCc1cnc(N2CCN(S(=O)(=O)C3(C(=O)NO)CCN(CCOC)CC3)CC2)nc1` [Example 334], for which the Ki on MMP-9 amounted to 1.19 nM; at MMP-14, 5770 nM.

Take `O=C(NO)C1(S(=O)(=O)N2CCN(c3ccc(CCC(F)(F)C(F)(F)F)cc3)CC2)CCN(C2CC2)CC1` [Example 335]: the results for the Ki at MMP-9 and on MMP-14 were 0.384 nM and 9290 nM, respectively. In the same order, the values of `O=C(NO)C1(S(=O)(=O)N2CCN(c3ccc(OCC(F)(F)C(F)F)cc3)CC2)CCOCC1` [Example 336] are 1.38 nM and 2520 nM. As for `O=C(NO)C1(S(=O)(=O)N2CCC(c3ccc(OC(F)(F)C(F)F)cc3)CC2)CCOCC1` [Example 337], the Ki on MMP-9 turned out to be 0.792 nM; at MMP-14, 1610 nM. For the compound `O=C(NO)C1(S(=O)(=O)N2CCC(c3ccc(CCCC(F)(F)F)cn3)CC2)CCOCC1` [Example 338], the Ki on MMP-9 stood at 0.738 nM; on MMP-14, 1330 nM. For the compound `O=C(NO)C1(S(=O)(=O)N2CCC(c3ccc(CCC(F)(F)C(F)(F)F)cn3)CC2)CCOCC1` [Example 340], the Ki on MMP-9 worked out at 0.222 nM; on MMP-14, 1300 nM.

As for `CCN1CCC(C(=O)NO)(S(=O)(=O)N2CCN(c3ccc(-c4ccccc4)c(F)c3)CC2)CC1` [Example 341], the inhibitory constant (Ki) on MMP-9 turned out to be 3.77 nM; on MMP-14, 4300 nM. On to `O=C(NO)C1(S(=O)(=O)N2CCN(c3ccc(OCCCC(F)(F)F)cc3)CC2)CC(O)C1` (stereo not shown) [Example 342], for which the results for the inhibition constant (Ki) at MMP-9 and at MMP-14 were 108 nM and greater than 10000 nM, respectively. Taken in the same sequence, the figures for `O=C(NO)C1(S(=O)(=O)N2CCN(c3ncc(-c4ccc(Cl)cc4)s3)CC2)CCOCC1` [Example 343] were 0.489 nM and 34.9 nM. In the case of `Cc1ccc(-c2cnc(N3CCN(S(=O)(=O)C4(C(=O)NO)CCOCC4)CC3)s2)cc1` [Example 344], the inhibitory constant (Ki) on MMP-9 came out at 0.492 nM; on MMP-14, 75 nM. With `O=C(NO)C1(S(=O)(=O)N2CCN(c3ncc(-c4ccc(F)cc4)s3)CC2)CCOCC1` [Example 345], the values for the Ki at MMP-9 and at MMP-14 were 0.416 nM and 38.1 nM, respectively.

On to `O=C(NO)C1(S(=O)(=O)N2CCN(c3ncc(-c4ccc(C(F)(F)F)cc4)s3)CC2)CCOCC1` [Example 346], for which the Ki is 2.05 nM at MMP-9 and 114 nM at MMP-14. On to `CC(C)(C)c1ccc(-c2cnc(N3CCN(S(=O)(=O)C4(C(=O)NO)CCOCC4)CC3)s2)cc1` [Example 347], for which the inhibitory constant (Ki) at MMP-9 stood at 6.38 nM; on MMP-14, 84.6 nM.

As to `Cc1ccccc1-c1cnc(N2CCN(S(=O)(=O)C3(C(=O)NO)CCOCC3)CC2)s1` [Example 348], the inhibition constant (Ki) at MMP-9 was determined as 9.57 nM; at MMP-14 it was 650 nM.

On to `O=C(NO)C1(S(=O)(=O)N2CCC(c3ccc(OC(F)(F)C(F)(F)F)cc3)CC2)CCOCC1` [Example 349], for which the Ki was 29.2 nM at MMP-9 and greater than 10000 nM at MMP-14. For the compound `O=C(NO)C1(S(=O)(=O)N2CCC(c3ccc(OCC(F)(F)C(F)F)cc3)CC2)CCN(C2CC2)CC1` [Example 350], the Ki on MMP-9 came to 1.21 nM; on MMP-14, 4470 nM. In the same order, the values of `O=C(NO)C1(S(=O)(=O)N2CCC(c3ccc(CCCC(F)(F)F)cc3)CC2)CCN(C2CC2)CC1` [Example 351] are 0.431 nM and 4740 nM. In the same order, the values of `O=C(O)c1ccc(N2CCN(S(=O)(=O)C3(C(=O)NO)CCOCC3)CC2)cc1` [Example 352] are 6610 nM and greater than 10000 nM.

In the case of `O=C(NO)C1(S(=O)(=O)N2CCC(c3ccc(CCCC(F)(F)F)cc3)CC2)CCOCC1` [Example 353], the Ki was determined as 0.546 nM at MMP-9 and 2710 nM on MMP-14.

For the compound `CCCCOc1cccc(N2CCN(S(=O)(=O)C3(C(=O)NO)CCOCC3)CC2)c1` [Example 354], the results for the inhibition constant Ki at MMP-9 and on MMP-14 were 786 nM and 4140 nM, respectively. As to `O=C(NO)C1(S(=O)(=O)N2CCN(c3cccc(OCCCC(F)(F)F)c3)CC2)CCOCC1` [Example 355], the results for the Ki at MMP-9 and at MMP-14 were 638 nM and 3440 nM, respectively. Taken in the same sequence, the figures for `CCCCCc1cccc(N2CCN(S(=O)(=O)C3(C(=O)NO)CCOCC3)CC2)c1` [Example 356] were 184 nM and 3420 nM. Consider `O=C(NO)C1(S(=O)(=O)N2CCC(c3ccc(OCC(F)(F)F)cc3)CC2)CCOCC1` [Example 357], for which the Ki worked out at 0.718 nM on MMP-9 and 2290 nM at MMP-14. Turning to `O=C(NO)C1(S(=O)(=O)N2CCN(c3ccc(CCCC(F)(F)F)cn3)CC2)CCOCC1` [Example 358], the Ki at MMP-9 was found to be 0.86 nM; on MMP-14 it was 2950 nM. As to `O=C(NO)C1(S(=O)(=O)N2CCN(c3ncc(-c4ccc(F)cc4F)s3)CC2)CCOCC1` [Example 359], the Ki at MMP-9 was found to be 1.21 nM; on MMP-14, 42.9 nM. As to `O=C(NO)C1(S(=O)(=O)N2CCN(c3ncc(-c4ccc(-c5ccccc5)cc4)s3)CC2)CCOCC1` [Example 360], the results for the Ki on MMP-9 and on MMP-14 were 6.28 nM and 216 nM, respectively.

On to `O=C(NO)C1(S(=O)(=O)N2CCN(c3ncc(/C=C/c4ccccc4)s3)CC2)CCOCC1` [Example 361], for which the Ki is 36.1 nM and 32.9 nM at MMP-9; 497 nM and 460 nM on MMP-14. Turning to `O=C(NO)C1(S(=O)(=O)N2CCN(c3ncc(-c4ccc5c(c4)OCO5)s3)CC2)CCOCC1` [Example 362], the inhibition constant (Ki) on MMP-9 came to 1.37 nM; on MMP-14, 150 nM. In the same order, the values of `O=C(NO)C1(S(=O)(=O)N2CCN(c3ncc(-c4ccc([N+](=O)[O-])cc4)s3)CC2)CCOCC1` [Example 363] are 1.74 nM and 27.8 nM. Regarding `O=C(NO)C1(S(=O)(=O)N2CCN(c3ncc(-c4ccc(OC(F)(F)F)cc4)s3)CC2)CCOCC1` [Example 364], the Ki came to 0.802 nM at MMP-9 and 69.7 nM on MMP-14. In the same order, the values of `O=C(NO)C1(S(=O)(=O)N2CCN(c3ncc(-c4cccc(-c5ccccc5)c4)s3)CC2)CCOCC1` [Example 365] are 1240 nM and greater than 10000 nM. Turning to `CC(C)c1ccc(-c2cnc(N3CCN(S(=O)(=O)C4(C(=O)NO)CCOCC4)CC3)s2)cc1` [Example 366], the inhibition constant (Ki) on MMP-9 came to 2.44 nM; at MMP-14, 50.3 nM.
